Measured values taken from US12090204B2, “Photodynamic therapy compositions and methods of use thereof” (Pinnacle Biologics, Inc., priority 2020, dated 2024).
Where “and” joins values, the source holds several entries; their conditions need not be identical. Equal entries are not always repeated.

Key:
A. baumannii (−) = experiment: porfimer sodium aPDT, planktonic culture; assay type: cell-based, Acinetobacter baumannii; settings: 630 nm, 200 J/cm2, porfimer sodium 125 μg/mL
Method: Bacteria were routinely cultured using tryptic soy broth or agar at 37° C. in a 5% CO2 incubator. Bacteria were isolated and suspended with 0.9% NaCl to an Optical Density (OD) of 0.1 taken at 630 nm, to generate the inoculum used for either planktonic or biofilm assays.
Experiments using planktonic cultures were carried out using M. catarrhalis, as a standard for further comparisons and to determine the effective drug concentration, porfimer sodium incubation time and light dose parameters which would provide an effective cell kill at the level of 5-7 logs. Once determined the experiments were repeated for all other bacterial strains examined.
The colony forming units (CFU) per mL of the starting inoculum for every experiment was determined by dilution plating. […]
Bacteria were exposed to 630 nm laser light via a fiber optic with a lens affixed to the distal end to provide a uniform diverging light field. […] Power output of the laser was measured using a UDT/Gamma Scientific 371 optical power meter and an integrating sphere. […]
Biofilms were formed on glass coupons in culture dishes containing a bacterial inoculum for 48 hours under conditions specific to the strain. […] Power output of the laser was measured using a UDT/Gamma Scientific 371 optical power meter and an integrating sphere. […]

[1] = test system: methicillin-resistant Staphylococcus aureus (MRSA), Staphylococcus aureus ATCC BAA 1768; experiment: partial thickness wound model, microbial load in wound swabs (Example 4); assay type: in vivo, Yorkshire pig; settings: for overall decrease of mean microbial load in wound swabs over the course of treatment (SD1 to SD3): untreated Group 2: 20-fold; for WOUND SWABS (CFU/mL) 24 hr. Post-Treat 2 / WOUND SWABS (CFU/mL) Immediately Post-Treat 2 / WOUND SWABS (CFU/mL) Pre-treat 2 / WOUND SWABS (CFU/mL) Pre-Treat 1: individual wounds; for WOUND SWABS (CFU/mL) Pre-Treat 1: 1.0 mg/mL
Method: Bacteria strains were obtained from ATCC (Manassas, VA). Bacteria were propagated from glycerol stock store at −80° C. A stab of the glycerol stock was used to inoculate 5 mL of trypticase soy broth. The cultures were incubated overnight at 37° C. with shaking at 250 rpm. The following day, a portion of overnight culture was used to prepare a streak plate onto an Oxacillin screen plate which was incubated overnight at 37° C. and single colony isolates of freshly plated bacteria were used to prepare bacterial inoculum. The morning of wounding an infection, a portion of overnight culture was used to inoculate 50 mL of trypticase soy broth and the newly inoculated media was incubated at 37° C. with shaking at 250 rpm until log phase growth was reached. The bacteria were pelleted by centrifugation at 4,000 rpm at 4° C. for 10 minutes in a Sorval tabletop centrifuge. The culture supernatant was discarded, and the bacterial pellets were suspended in a volume of sterile PBS to yield a concentration of 2×10^7 CFU/mL.
Wounds were swabbed with a sterile cotton tipped applicator in a serpentine motion starting at the upper left-hand margin of the wound and ending at the bottom right wound margin. A dry sterile cotton tipped applicator was used for all wounds. The swabs were placed into 14 mL falcon tubes containing 1 mL of sterile PBS. The tubes were vigorously vortexed and serial 10-fold dilutions of the PBS in the tubes containing the swabs were prepared. One hundred microliters of select dilutions for wound groups were plated onto agar plates. The plates were incubated at 35-37° C. and colonies enumerated manually. The data are reported as CFU/swab normalized to the volume of PBS in which the swabs were placed.
This study evaluated the ability of porfimer sodium to reduce/eliminate microbial colonization and biofilm from surgical sites in a partial thickness would healing model. The study was conducted in a single female Yorkshire pig over the course of five days. A dermatome was used to create 20 partial thickness wounds. Sixteen of the wounds were infected with methicillin-resistant Staphylococcus aureus (MRSA), and four were designated as uninfected controls. The wounds were bandaged and the bacterial biofilm allowed to develop for 48 hours.
Designated infected wounds were subjected to two courses of treatment with the test article at a periodicity of 24 hours. Article dose concentration of 1.0 mg/mL of porfimer sodium was prepared as described in Example 3, and used immediately, with the exception of two wounds (L6 and L7) where the test article (reconstituted porfimer sodium) was mixed 1:1 with NeilMed NasalGel.
Treatments consisted of application of the test article followed by photoactivation with one or two intensities of light, 150 J/cm^2 or 200 J/cm^2 (Table 3). Wounds were evaluated for microbial load prior to each course of treatment, immediately following the final treatment and 24 hours following the final treatment. Tissue specimens from infected and non-infected wounds were harvested for histology of biofilm formation at each treatment time point. Tissue specimens from treated wounds were harvested 24 hours following the final treatments for histology.

[2] = conventional reconstituted porfimer sodium, comparison statement; cited from earlier work
[3] = Group 4 (200 J/cm^2), N 3, without wounds L6, R5, R9

## porfimer sodium
A. baumannii (−)
  Rate of kill: 1Log
[1]; Group 3 (150 J/cm^2), N 6
  Mean microbial load, Posttreat 2 (swab): 5.33E+03 CFU/swab
  Mean microbial load, Pretreat 1 (swab): 9.91E+05 CFU/swab
  Mean microbial load, Pretreat 2 (swab): 1.90E+05 CFU/swab
[1]; Group 3, 150 J/cm^2
  additional decrease of mean microbial load in wound swabs following Treatment 2: 36 fold
  decrease of mean microbial load in wound swabs following treatment 1 (SD1 to SD2): 5.2 fold
  overall decrease of mean microbial load in wound swabs over the course of treatment (SD1 to SD3): 186 fold
[1]; Group 3 = 150 J/cm2 treatment
  WOUND SWABS (CFU/mL) 24 hr. Post-Treat 2: 1.14E+04 CFU/mL and 1.17E+04 CFU/mL and 3.50E+02 CFU/mL and 2.65E+03 CFU/mL and 4.30E+03 CFU/mL
  WOUND SWABS (CFU/mL) Immediately Post-Treat 2: 1.92E+05 CFU/mL and 6.16E+03 CFU/mL
  WOUND SWABS (CFU/mL) Pre-treat 2: 8.80E+04 CFU/mL and 6.60E+05 CFU/mL and 2.74E+03 CFU/mL and 4.20E+04 CFU/mL and 3.45E+05 CFU/mL
  WOUND SWABS (CFU/mL) Pre-Treat 1: 6.30E+05 CFU/mL and 3.03E+06 CFU/mL and 2.88E+05 CFU/mL and 4.00E+03 CFU/mL and 5.40E+04 CFU/mL
[1]; [3]
  Mean microbial load, Posttreat 2 (swab): 1.16E+03 CFU/swab
  Mean microbial load, Pretreat 1 (swab): 8.53E+05 CFU/swab
  Mean microbial load, Pretreat 2 (swab): 5.11E+05 CFU/swab
[1]; Group 4, 200 J/cm^2
  additional decrease of mean microbial load in wound swabs following Treatment 2: 250 fold
  decrease of mean microbial load in wound swabs following treatment 1 (SD1 to SD2): 1.7 fold
  overall decrease of mean microbial load in wound swabs over the course of treatment (SD1 to SD3): 735 fold
[1]; Group 4 = 200 J/cm2 treatment
  WOUND SWABS (CFU/mL) 24 hr. Post-Treat 2: 1.55E+03 CFU/mL and 1.79E+02 CFU/mL and 1.75E+03 CFU/mL and 3.15E+03 CFU/mL and 2.31E+02 CFU/mL
  WOUND SWABS (CFU/mL) Immediately Post-Treat 2: 4.20E+04 CFU/mL and 2.80E+04 CFU/mL
  WOUND SWABS (CFU/mL) Pre-treat 2: 1.40E+04 CFU/mL and 2.00E+04 CFU/mL and 1.50E+06 CFU/mL and 1.44E+06 CFU/mL and 7.60E+00 CFU/mL
  WOUND SWABS (CFU/mL) Pre-Treat 1: 2.42E+05 CFU/mL and 2.60E+04 CFU/mL and 2.29E+06 CFU/mL and 0.00E+00 CFU/mL (2×)
[1]; porfimer sodium mixed in saline
  consistency of results when applied directly to infected wounds: inconsistency in the results
[2]
  time stable when reconstituted with saline: 24 h
